Experiment [1] deals with cGMP-inhibited 3',5'-cyclic phosphodiesterase 3B (Homo sapiens, UniProt Q13370). Briefly: (§1) PDE3B Enzyme Inhibition: The commercially available 3H-cAMP Scintillation Proximity Assay (SPA, Perkin Elmer) system was used for enzyme inhibition studies. For the determination of the in vitro effect of example compounds on the PDE3B reactions 2 μl of the respective example compound solution in DMSO (serial dilutions) were placed in wells of microtiter plates (Isoplate-96/200W; Perkin Elmer). 50 μl of a dilution of PDE3B cell extract from Sf9 cells overexpressing human full length PDE3B (SB Drug Discovery, UK) in buffer A (50 mM Tris/HCl pH 7.5, 8.3 mM MgCl2, 1.7 mM EDTA, 0.2% BSA) was added. The dilution of the PDE3B cell extract was chosen such that the reaction kinetics was linear and less than 70% of the substrate was consumed (typical dilution 1:6000). The reaction was started by addition of 50 μl (0.025 μCi) of 1:2000 in buffer A w/o BSA diluted substrate [8-3H]adenosine 3′, 5′-cyclic phosphate (1 μCi/μl; Perkin Elmer). After incubation at room temperature for 60 min, the reaction was stopped by addition of 25 μl of a suspension containing 18 mg/ml yttrium scintillation proximity beads (Perkin Elmer) in water. The microtiter plates were sealed and measured in a Microbeta scintillation counter (PerkinElmer Wallac). IC50 values were determined from sigmoidal curves by plotting percentage PDE3B activity vs log compound concentration.
Sequence of cGMP-inhibited 3',5'-cyclic phosphodiesterase 3B (Q13370 whole entry): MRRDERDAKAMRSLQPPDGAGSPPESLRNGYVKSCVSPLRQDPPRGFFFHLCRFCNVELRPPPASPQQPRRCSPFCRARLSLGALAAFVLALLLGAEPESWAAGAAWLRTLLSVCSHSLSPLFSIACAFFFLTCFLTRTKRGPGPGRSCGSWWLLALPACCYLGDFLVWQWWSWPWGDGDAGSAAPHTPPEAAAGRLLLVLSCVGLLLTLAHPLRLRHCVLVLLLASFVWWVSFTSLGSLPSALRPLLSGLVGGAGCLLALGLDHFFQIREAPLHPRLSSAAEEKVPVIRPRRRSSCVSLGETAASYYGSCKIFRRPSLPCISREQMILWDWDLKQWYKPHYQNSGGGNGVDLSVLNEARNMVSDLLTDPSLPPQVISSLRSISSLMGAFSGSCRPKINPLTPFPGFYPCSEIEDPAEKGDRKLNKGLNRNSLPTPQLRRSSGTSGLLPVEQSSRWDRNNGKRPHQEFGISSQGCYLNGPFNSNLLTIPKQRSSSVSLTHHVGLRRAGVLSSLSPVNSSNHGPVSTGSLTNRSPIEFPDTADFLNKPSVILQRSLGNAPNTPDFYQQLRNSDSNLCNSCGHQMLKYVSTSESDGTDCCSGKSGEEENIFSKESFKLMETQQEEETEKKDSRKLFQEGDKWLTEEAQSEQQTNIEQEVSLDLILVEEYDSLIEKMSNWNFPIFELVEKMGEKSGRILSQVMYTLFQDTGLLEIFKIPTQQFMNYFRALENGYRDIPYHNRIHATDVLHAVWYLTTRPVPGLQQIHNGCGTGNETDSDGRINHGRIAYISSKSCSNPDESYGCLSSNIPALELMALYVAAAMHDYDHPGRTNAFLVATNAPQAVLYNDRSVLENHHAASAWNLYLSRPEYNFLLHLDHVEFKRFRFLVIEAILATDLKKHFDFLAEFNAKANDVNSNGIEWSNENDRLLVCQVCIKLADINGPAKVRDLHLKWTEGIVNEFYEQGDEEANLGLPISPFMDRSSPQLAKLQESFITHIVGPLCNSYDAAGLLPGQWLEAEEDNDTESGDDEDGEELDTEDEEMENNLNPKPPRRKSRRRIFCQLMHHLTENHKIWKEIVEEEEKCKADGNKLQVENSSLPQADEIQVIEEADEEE

Experiment [2] concerns the target cGMP-inhibited 3',5'-cyclic phosphodiesterase 3A (Homo sapiens, UniProt Q14432). The description is as §1, with “PDE3A” for “PDE3B”, “1:5000).” for “1:6000).”.

Sequence of cGMP-inhibited 3',5'-cyclic phosphodiesterase 3A (Q14432 whole entry): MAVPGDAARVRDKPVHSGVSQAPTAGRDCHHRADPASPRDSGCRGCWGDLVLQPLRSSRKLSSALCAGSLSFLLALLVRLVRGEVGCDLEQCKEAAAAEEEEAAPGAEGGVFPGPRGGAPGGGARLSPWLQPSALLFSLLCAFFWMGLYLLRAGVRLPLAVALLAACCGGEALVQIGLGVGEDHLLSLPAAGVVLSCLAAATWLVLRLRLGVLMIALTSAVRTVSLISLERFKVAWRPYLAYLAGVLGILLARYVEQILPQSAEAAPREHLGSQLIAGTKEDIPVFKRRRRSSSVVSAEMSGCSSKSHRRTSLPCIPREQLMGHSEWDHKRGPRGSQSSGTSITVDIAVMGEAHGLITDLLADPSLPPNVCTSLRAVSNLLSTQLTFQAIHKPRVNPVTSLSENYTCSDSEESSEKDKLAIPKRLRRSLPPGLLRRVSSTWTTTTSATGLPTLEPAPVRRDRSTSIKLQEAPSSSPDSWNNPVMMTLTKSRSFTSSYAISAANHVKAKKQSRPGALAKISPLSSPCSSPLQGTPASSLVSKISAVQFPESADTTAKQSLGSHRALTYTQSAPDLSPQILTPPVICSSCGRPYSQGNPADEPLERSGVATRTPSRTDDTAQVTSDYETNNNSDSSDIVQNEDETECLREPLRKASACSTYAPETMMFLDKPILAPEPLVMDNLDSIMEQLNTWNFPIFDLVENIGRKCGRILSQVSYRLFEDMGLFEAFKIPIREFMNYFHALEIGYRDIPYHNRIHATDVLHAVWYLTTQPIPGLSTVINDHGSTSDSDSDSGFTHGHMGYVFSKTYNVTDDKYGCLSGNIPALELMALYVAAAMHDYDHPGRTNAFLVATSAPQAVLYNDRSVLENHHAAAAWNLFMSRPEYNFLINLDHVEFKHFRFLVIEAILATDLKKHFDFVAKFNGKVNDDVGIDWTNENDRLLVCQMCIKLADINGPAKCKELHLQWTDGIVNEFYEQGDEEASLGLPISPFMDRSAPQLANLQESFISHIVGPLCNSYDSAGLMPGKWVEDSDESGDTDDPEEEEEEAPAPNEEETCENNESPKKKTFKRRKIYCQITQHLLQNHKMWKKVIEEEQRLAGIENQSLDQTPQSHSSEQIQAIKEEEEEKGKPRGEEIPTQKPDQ

By IC50 is commonly meant the concentration needed to halve the response being measured. For `C[C@@H]1OC(=O)NN=C1c1ccc(-n2ccc(C(F)(F)F)n2)c(C(F)(F)F)c1`, the figures for the IC50 in experiment [1] and in experiment [2] were 383 nM and 657 nM, respectively.

With `C[C@@H]1OC(=O)NN=C1c1ccc(N2CC(F)(F)C2)c(C(F)(F)F)c1`, the results for the IC50 in experiment [1] and in experiment [2] were 23 nM and 20 nM, respectively.

As for `C[C@@H]1OC(=O)NN=C1c1ccc(N2CC(C)(O)C2)c(C(F)(F)F)c1`, the IC50 came to 9 nM in experiment [1] and 11 nM in experiment [2].

As to `Cc1cc(C2=NNC(=O)OC2)ccc1-c1cccnc1`, the IC50 in experiment [1] came to 44 nM; in experiment [2], 110 nM.

These data come from ChEMBL document CHEMBL5729281, “Dihydrooxadiazinones” (2022).
